Assay results from article PMC10541411 (Nature Communications, 2023).
Ends that are not written are not given here. Me2 = dimethyl-lysine

Experiments:
[1] = target: 53BP1^TT-CC (tandem Tudor domain of 53BP1, residues 1481-1603, E1549C/E1567C), disulfide-crosslinked homodimer (UniProt Q12888); assay: AUC; sedimentation velocity of 53BP1^TT-CC (20 uM) without DTT; 20 °C, 20 mM sodium phosphate pH 7.5, 50 mM NaCl
53BP1^TT = target: T1, 53BP1^TT (Homo sapiens, UniProt Q12888); parameters: method as in PMID 25590533; conditions: previously identified; read-out: dissociation constant (Kd); cited from earlier work
T1 construct: The tandem Tudor domain of 53BP1 (53BP1^TT, residues 1481–1603) was purified as previously described; made in house; host or cells: E. coli (only for the SAXS sample)

53BP1^TT homodimer = target: T2, 53BP1^TT homodimer (Homo sapiens, UniProt Q12888); assay: 2D longitudinal 1H-15N-heteronuclear ZZ-exchange NMR spectroscopy, protomer interconversion; format: binding; conditions: 25 °C, 1 mM 15N-labeled 53BP1TT and 9 mM UNC2170, signals of E1524
T2 construct: The tandem Tudor domain of 53BP1 (53BP1^TT, residues 1481–1603) was purified as previously described; made in house; host or cells: E. coli (only for the SAXS sample)
Description: (§1) All NMR data were collected at 25 °C on a 700 MHz Bruker Avance III spectrometer equipped with a cryoprobe. Data were processed and analyzed with NMRPipe[54] and NMRViewJ[55],[56].
The protomer interconversion rates in the 53BP1^TT-UNC2970 complex were determined using 2D longitudinal ^1H-^15N-heteronuclear ZZ-exchange NMR spectroscopy[22]–[24]. For these experiments, a series of 11 spectra were acquired with mixing times of 0, 100, 200, 300, 400, 500, 600, 700, 800, 900, and 1000 ms in 25 mM sodium phosphate, pH 7.0, 100 mM NaCl, 1.5 mM NaN3, 0.3 mM DSS, 90% H2O/10% D2O. The interconversion rates were obtained from nonlinear fitting of auto peak and exchange peak intensities accounting for two-site exchange and ^15N R1 relaxation using the equations previously described for a two-state model.

[2] = target: T3, 53BP1^TT-PN (E1549P/D1550N) (Homo sapiens, UniProt Q12888, D1550N/E1549P); assay: 1H-15N HSQC NMR titration of 15N-labeled 53BP1TT-PN; format: binding; conditions: up to fourfold molar excess
T3 construct: The tandem Tudor domain of 53BP1 (53BP1^TT, residues 1481–1603) was purified as previously described; made in house
Description: as §1
(§2) To probe chemical shift perturbations, ^1H-^15N HSQC spectra were acquired on the following samples: 0.2 mM ^15N-labeled 53BP1^TT WT and 53BP1^TT-PN in 25 mM sodium phosphate, pH 7.0, 1.5 mM NaN3, 0.3 mM DSS, 90% H2O/10% D2O, free and incrementally titrated with various non-labeled inhibitors (UNC1078, UNC1118, UNC2170, UNC2991, UNC3474), as well as with H4KC20me2 and p53K382me2 peptides. Chemical shift perturbations (Δδ) were calculated using the Eq. (1):1 Δδ=(ΔN/5)^2+ΔH^2 where ΔN and ΔH are the corresponding differences in ^15N and ^1H chemical shifts between the bound and free forms of 53BP1.

53BP1^TT WT = 53BP1^TT WT (Homo sapiens, UniProt Q12888); assay: 1H-15N HSQC NMR titration of 15N-labeled wild-type 53BP1TT; format: binding; parameters: The tandem Tudor domain of 53BP1 (53BP1^TT, residues 1481–1603) was purified as previously described; made in house; host or cells: E. coli (only for the SAXS sample); conditions: 15N-labeled WT 53BP1TT
Description: as §1, §2

[3] = target: T4, 53BP1^TT (tandem Tudor domain of 53BP1, residues 1481–1603) (Homo sapiens, UniProt Q12888); assay: Isothermal titration calorimetry (ITC) of small molecules with 53BP1TT; format: binding; conditions: 25 °C, 50 mM Tris-HCl pH 7.5, 50 mM NaCl, one-site model; read-out: Kd (apparent, ITC)
T4 construct: The tandem Tudor domain of 53BP1 (53BP1^TT, residues 1481–1603) was purified as previously described; made in house; host or cells: E. coli (only for the SAXS sample)
Description: The ITC measurements were performed at 25 °C using a MicroCal iTC200 calorimeter. 53BP1^TT and the small molecules (UNC2991, UNC3351, UNC3474) were in 50 mM Tris-HCl, pH 7.5, 50 mM NaCl. In a typical run, 53BP1^TT was in the reaction cell at a concentration of 150 to 160 μM while the small molecule, in the titration syringe at a concentration of 0.8–2 mM, was delivered as 2 μL injections every 3 min. The titrations were paired with control experiments for heat of dilution. The titration of 53BP1^TT with UNC1118 was performed using a MicroCal VP-ITC calorimeter. ITC data were fitted to a one-site model using a Levenberg-Marquardt non-linear regression algorithm programmed in the Origin 7.0 software.
Supplementary Figure 1 | Interaction of 53BP1TT with small molecules probed using isothermal titration calorimetry (ITC) and small-angle X-ray scattering (SAXS). a, ITC of the interaction of UNC2991, UNC3351 and UNC3474 with 53BP1TT. Raw titration data and integrated heat measurements are shown. Indicated apparent Kds with associated standard deviations were determined by nonlinear least-squares analysis.
1.33 and 2 mg/mL with an exposure time of 0.5 s, without and with 10-fold molar excess of UNC1118 or UNC3474. The error bars in the scattering curves were generated using PRIMUS in the data analysis software ATSAS 2.4.2 and represent mean ± standard deviation calculated from signal intensity scaling and merging for the three different 53BP1TT concentrations. The Guinier plots, dimensionless Kratky plots and pair distance distribution functions derived from the SAXS data are shown. Also shown are the crystal structures of 53BP1TT and 53BP1TT-UNC3474 overlaid to the corresponding SAXS-based ab initio molecular envelopes generated using GASBOR 2.3i. c, Interaction of UNC1118 with 53BP1TT characterized using ITC (left) and NMR spectroscopy (right).
For the ITC, raw titration data and integrated heat measurements are shown. The indicated Kd with associated standard deviation was determined by nonlinear least-squares analysis.
(1 picture or pasted object on this page, not shown here)

T3 sequence (Q12888 1481-1603 E1549P/D1550N): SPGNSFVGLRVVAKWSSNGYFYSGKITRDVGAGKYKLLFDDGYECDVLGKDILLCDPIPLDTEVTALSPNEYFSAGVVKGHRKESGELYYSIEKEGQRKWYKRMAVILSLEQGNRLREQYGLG
53BP1^TT WT, sequence (Q12888 1481-1603): as the sequence (Q12888 1481-1603 E1549P/D1550N) above, with P69E, N70D counted along it
T2 sequence (Q12888 1481-1603): as the sequence (Q12888 1481-1603 E1549P/D1550N) above, with P69E, N70D counted along it
T4 sequence (Q12888 1481-1603): as the sequence (Q12888 1481-1603 E1549P/D1550N) above, with P69E, N70D counted along it
T1 sequence (Q12888 1481-1603): as the sequence (Q12888 1481-1603 E1549P/D1550N) above, with P69E, N70D counted along it

53BP1^TT-CC (tandem Tudor domain of 53BP1, residues 1481-1603, E1549C/E1567C), disulfide-crosslinked homodimer (from UniProt Q12888 1481-1603) (domain or fragment)
stoichiometry N [1]: 2

CC(C)(C)NCCCNC(=O)c1cccc(Br)c1 [UNC2170]
Kd (53BP1^TT): 22 ± 2.5 µM
interconversion rate kAB between the two protomers in the 53BP1TT dimer (53BP1^TT homodimer): 1.7 s⁻¹
interconversion rate kBA between the two protomers in the 53BP1TT dimer (53BP1^TT homodimer): 1.2 s⁻¹
interaction with 53BP1TT-PN (1H-15N HSQC titration) [2]: did not interact
changes in signal positions in the 1H-15N HSQC spectrum of 53BP1TT upon titration (53BP1^TT WT): slow exchange on the chemical shift time scale

CC(C)(C)NCCCNC(=O)c1cccc(I)c1 [UNC2991]
Kd [3]: 3.9 ± 0.4 µM
interaction with 53BP1TT-PN (1H-15N HSQC titration) [2]: did not interact
changes in signal positions in the 1H-15N HSQC spectrum of 53BP1TT upon titration (53BP1^TT WT): slow exchange on the chemical shift time scale

CC(C)(C)NCCCNC(=O)c1cccc(C(F)(F)F)c1 [UNC3351]
Kd [3]: 6.8 ± 0.4 µM
changes in signal positions in the 1H-15N HSQC spectrum of 53BP1TT upon titration (53BP1^TT WT): slow exchange on the chemical shift time scale

H4KC20me2: dimethylated histone H4 peptide (residues 12–25) with chemically installed dimethyl-lysine analog (KGGAKRHRCVLRDN; dimethyl-lysine analog at position 20 (KC20me2), installed chemically) [reference compound]
interaction with 53BP1TT-PN (1H-15N HSQC titration) [2]: bound

p53K382me2: dimethylated p53 peptide (residues 377–386) purchased from GenScript (TSRHKK(Me2)LMFK) [reference compound]
interaction with 53BP1TT-PN (1H-15N HSQC titration) [2]: bound
